Legend:
[1] = target: T1, PaNTD (P. aeruginosa MutL N-terminal domain) (Pseudomonas aeruginosa, UniProt Q9HUL8); assay: size-exclusion chromatography, nucleotide-induced dimerization; assay type: binding; details: 5 mM MgCl2, 150 mM KCl, 20 mM Tris-HCl pH 7.9, room temperature
T1 sequence (Q9HUL8 1-339): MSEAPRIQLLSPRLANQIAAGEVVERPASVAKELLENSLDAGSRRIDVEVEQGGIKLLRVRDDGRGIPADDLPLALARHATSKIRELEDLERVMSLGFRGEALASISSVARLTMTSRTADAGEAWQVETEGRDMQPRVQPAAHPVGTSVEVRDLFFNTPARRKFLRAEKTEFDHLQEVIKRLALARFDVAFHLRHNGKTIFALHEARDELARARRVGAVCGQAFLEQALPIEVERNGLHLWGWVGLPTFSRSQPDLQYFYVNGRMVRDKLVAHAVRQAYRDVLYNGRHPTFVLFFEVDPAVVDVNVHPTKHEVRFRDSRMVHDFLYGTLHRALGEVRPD

[2] = target: T2, EcNTD (E. coli MutL N-terminal domain, LN40) (Escherichia coli, UniProt P23367); assay: DSS chemical cross-linking, nucleotide-induced dimerization, SDS-PAGE; assay type: binding; details: 1 mM AMPPNP, 5 mM MgCl2, 150 mM KCl, 20 mM HEPES pH 7.4, 4 °C
T2 sequence (P23367 1-342): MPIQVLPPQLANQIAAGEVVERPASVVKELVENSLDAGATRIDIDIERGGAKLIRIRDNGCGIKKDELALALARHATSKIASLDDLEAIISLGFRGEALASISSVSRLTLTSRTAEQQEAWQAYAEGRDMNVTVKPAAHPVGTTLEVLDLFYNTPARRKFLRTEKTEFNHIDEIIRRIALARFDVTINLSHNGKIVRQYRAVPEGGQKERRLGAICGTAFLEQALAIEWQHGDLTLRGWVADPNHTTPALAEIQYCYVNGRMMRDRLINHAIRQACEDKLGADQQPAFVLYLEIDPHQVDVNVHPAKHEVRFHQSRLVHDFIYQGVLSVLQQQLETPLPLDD

[3] = target: the molecule itself; assay: SEC; Superose 12 10/30, 20 mM Tris-HCl pH 7.9, 150 mM KCl, 5 mM MgCl2, 1 mM DTT, room temperature; 1 mg/ml PaNTD or 2 mg/ml EcNTD (legend: 22 µM) without nucleotide, with ADP or with ATP; calibrated with BSA 45 and 66 kDa

Nc1ncnc2c1ncn2[C@@H]1O[C@H](COP(=O)(O)OP(=O)(O)O)[C@@H](O)[C@H]1O [ADP]
size-exclusion chromatography, nucleotide-induced dimerization [1]: PaNTD binding to ADP displaced monomer-dimer equilibrium as judged by size-exclusion chromatography

Nc1ncnc2c1ncn2[C@@H]1O[C@H](COP(=O)(O)OP(=O)(O)NP(=O)(O)O)[C@@H](O)[C@H]1O [AMPPNP]
DSS chemical cross-linking, nucleotide-induced dimerization, SDS-PAGE [2]: EcNTD dimers were only observed in presence of AMPPNP (Figure S5)

Nc1ncnc2c1ncn2[C@@H]1O[C@H](COP(=O)(O)OP(=O)(O)OP(=O)(O)O)[C@@H](O)[C@H]1O [ATP]
size-exclusion chromatography, nucleotide-induced dimerization [1]: No major differences were observed among the elution pattern of ADP or ATP bound PaNTD

B1: Pseudomonas aeruginosa MutL N-terminal domain (PaNTD, amino acids 1-339), His6-tagged (domain or fragment, UniProt Q9HUL8 1-339, looked up)
chain: MSEAPRIQLLSPRLANQIAAGEVVERPASVAKELLENSLDAGSRRIDVEVEQGGIKLLRVRDDGRGIPADDLPLALARHATSKIRELEDLERVMSLGFRGEALASISSVARLTMTSRTADAGEAWQVETEGRDMQPRVQPAAHPVGTSVEVRDLFFNTPARRKFLRAEKTEFDHLQEVIKRLALARFDVAFHLRHNGKTIFALHEARDELARARRVGAVCGQAFLEQALPIEVERNGLHLWGWVGLPTFSRSQPDLQYFYVNGRMVRDKLVAHAVRQAYRDVLYNGRHPTFVLFFEVDPAVVDVNVHPTKHEVRFRDSRMVHDFLYGTLHRALGEVRPD
notes: MutL of Pseudomonas aeruginosa, N-terminal ATPase domain, residues 1-339 of PaMutL, amplified from genomic DNA; monomeric MW 37.7 kDa; The pET-15b vector should add an N-terminal His6 tag with a thrombin site (surmised, as is cloning through NdeI); no cleavage of the tag is described; also called His6-PaNTD; His-tag PaNTD
dimer share of peak area [3]: ~0.2 share of the dimer peak (monomer 0.8)
stoichiometry N [3]: 2

— publication PMC3724809, “Analysis of the Interaction Interfaces of the N-Terminal Domain from Pseudomonas aeruginosa MutL” (PLoS ONE, 2013)
